According to patent publication US20060140869A1, “Polymeric contrast agents for use in medical imaging” (priority 2004, published 2006):

Test system: rat mammary adenocarcinoma (Mat B) tumor
Assay: MR imaging of subcutaneous Mat B tumors in rats after intravenous injection of polymeric contrast agent
Format: in vivo
Details: Mat B tumor in Fisher female rats
Experimental: Fisher female rats were implanted subcutaneously with rat mammary adenocarcinoma cells (ATTC Mat B cells) that were grown to a suitable density in tissue culture. The implanted cells grew into tumors of 1-2 cm diameter in about 10 to 14 days and continued to grow to larger sizes when experiments extended beyond that time frame.
The reptating polymer that was used (Polylysine-Gd-DTPA) was synthesized using a synthesis method described above with polymer length of 780 monomer units, molecular weight of 460 kDaltons, and about 98% of lysines acylated with DTPA (i.e. about 764 Gd ions). The animals were injected intravenously at a dose of 0.025 mmoles Gd/kG. FIG. 1 are a series of images taken wherein the imaging was done pre-injection, one minute after injection, 60 minutes after injection, and 24 hours after injection with a T1 weighted spin echo pulse sequence (TR=250 ms, TE=9 ms), 12 centimeter FOV, 1 millimeter slices. Receive coil was a solenoid coil of about 5 centimeters diameter. Imaging was done on a Signa 1.5 Tesla scanner.
FIG. 2 is a graph of the slopes in signal change for all the pixels in the tumor and the highest 10% of pixels in the tumor. The signals are heterogenous in space due to angiogenesis being most prevalent in the outer rim of the tumor. Thus in order to capture the regions of interest with high permeability, the average signal associated with the pixels of the entire tumor in the image slice is plotted in addition to the average signal associated with the highest 10% of the pixels. The highest 10% of the pixels represents the hypermeable regions associated with angiogenic processes. The use of all pixels represents the average values for the entire tumor which includes then the center of tumors which are often necrotic and unreactive in terms of blood perfusion. These regions are not biologically relevant and thus the total average values have more “noise” that are associated with the necrotic processes which are not of direct interest in the present case. […]

[1] = linear regression fit, intravenous injection, T1 weighted spin echo, 1.5 Tesla

Substance | magnetic resonance signal change compared with the polymer of Example 2 (0.025 mmoles Gd/kG intravenously) | slope of signal change, all the pixels in the tumor [1] | slope of signal change, highest 10% of the pixels in the tumor [1]
Polylysine-Gd-DTPA [Example 1] | enhanced magnetic resonance signals |  | 
Polylysine-Gd-DTPA [Example 2] |  | 7 % per hour | 14 % per hour
